Results on four compounds are retold here after patent US20050049294A1, “Methods of using [3.2.0] heterocyclic compounds and analogs thereof” (priority 2003, published 2005).

One series relates to HL-60/MX2 cells. Description: cells. To be noted: for Fold change: ratio of EC50 values (HL-60/MX2:HL-60). The source says: (§1) The DNA binding agent Mitoxantrone was included as a control, as HL-60/MX2 cells are reported to be resistant to this chemotherapeutic agent (Harker W. G. et al. 1989).
In another series the test system is HL-60 cells. The experiment in a line: Cell growth inhibition (resazurin, 48 hours), HL-60.
Excerpt: as §1
A general note: The colour change of resazurin is a common sign of viable cells or microbes.

Another series concerns PC-3 cells. Description: Cell growth inhibition (resazurin, 48 hours), PC-3. In kind it is cell-based, human.
Series [1] concerns the target T1, trypsin-like activity of purified rabbit 20S proteasomes (Oryctolagus cuniculus, UniProt G1SWK8).
T1 sequence (G1SWK8 1-271): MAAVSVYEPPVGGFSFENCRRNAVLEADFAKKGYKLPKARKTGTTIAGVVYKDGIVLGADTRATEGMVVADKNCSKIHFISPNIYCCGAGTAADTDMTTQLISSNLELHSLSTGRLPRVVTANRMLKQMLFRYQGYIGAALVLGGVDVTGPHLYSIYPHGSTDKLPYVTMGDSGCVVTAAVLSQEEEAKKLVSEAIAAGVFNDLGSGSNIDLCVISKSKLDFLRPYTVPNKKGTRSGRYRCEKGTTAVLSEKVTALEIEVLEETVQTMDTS
The experiment in a line: biochemical.

Series [2] has as its target T2, chymotrypsin-like activity of rabbit muscle 20S proteasomes (Oryctolagus cuniculus, UniProt G1T4Q9).
T2 sequence (G1T4Q9 1-263): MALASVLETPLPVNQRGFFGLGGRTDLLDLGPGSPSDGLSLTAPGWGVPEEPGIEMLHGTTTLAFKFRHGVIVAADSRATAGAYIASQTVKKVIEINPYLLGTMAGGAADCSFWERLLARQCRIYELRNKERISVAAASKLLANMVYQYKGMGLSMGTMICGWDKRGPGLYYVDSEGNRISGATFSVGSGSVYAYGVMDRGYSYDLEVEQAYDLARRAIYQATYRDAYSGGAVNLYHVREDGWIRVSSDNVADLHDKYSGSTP
Description: Inhibition of chymotrypsin-like activity of purified rabbit muscle 20S proteasome (suc-LLVY-AMC). It counts as biochemical.

Another series concerns MDA-MB-231 cells. The experiment in a line: Cell growth inhibition (resazurin, 48 hours), MDA-MB-231. It counts as cell-based. To be noted: Homo sapiens.
In a further series the test system is OVCAR-3 cells. The experiment in a line: Cell growth inhibition (resazurin, 48 hours), OVCAR-3. In kind it is cell-based, human.
For a further series, the system named is B16-F10 cells. Description: Cell growth inhibition (resazurin, 48 hours), B16-F10. It counts as cell-based, mouse.
The next series has as its system MES-SA/Dx5 cells. The experiment in a line: cells. To be noted: for Fold change: ratio of EC50 values (MES-SA/Dx5:MES-SA).
The subject of series [3] is NF-κB-mediated luciferase activity in HEK293 NF-κB/Luc cells. Description: NF-κB-mediated luciferase reporter gene assay. It counts as cell-based, human. To be noted: for EC50: Homo sapiens; for luciferase activity upon TNF-α stimulation: pretreatment of NF-κB/Luc 293 cells. How it is done: The HEK293 NF-κB/luciferase reporter cell line is a derivative of the human embryonic kidney cell line (ATCC; CRL- 1573) and carries a luciferase reporter gene under the regulation of 5×NF-κB binding sites. […] When performing the luciferase assay, the DMEM basal medium was replaced with phenol-red free DMEM basal medium and the G418 was omitted.
For NF-κB-mediated luciferase assays, HEK293 NF-κB/luciferase cells were seeded at 1.5×10^4 cells/well in 90 μl phenol-red free DMEM complete medium into Corning 3917 white opaque-bottom tissue culture plates. […] This dilution series was further diluted 40× in appropriate culture medium and ten μl aliquots were added to the test wells in triplicate resulting in final test concentrations ranging from 1 μM to 320 pM. […] For Formula II-19, a 127 μM starting dilution was made in 100% DMSO and the final test concentrations ranging from 317 nM to 0.1 nM. […] After 1 hr pretreatment, 10 μl of a 50 ng/ml TNF-α solution, prepared in the phenol-red free DMEM medium was added, and the plates were incubated for an additional 6 hr.
NF-κB inducible luciferase activity was measured at 6 hours.
The HEK293 NF-κB/luciferase reporter cell line is a derivative of the human embryonic kidney cell line (ATCC; CRL-1573) and carries a luciferase reporter gene under the regulation of 5×NF-κB binding sites. […] When performing the luciferase assay, the DMEM basal medium was replaced with phenol-red free DMEM basal medium and the G418 was omitted.
For NF-κB-mediated luciferase assays, HEK293 NF-κB/luciferase cells were seeded at 1.5×10^4 cells/well in 90 μl phenol-red free DMEM complete medium into Corning 3917 white opaque-bottom tissue culture plates. For Formula II-2, Formula II-4 and Formula II-5A, a 400 μM starting dilution was made in 100% DMSO and this dilution was used to generate a 8-point half log dilution series. This dilution series was further diluted 40× in appropriate culture medium and ten μl aliquots were added to the test wells in triplicate resulting in final test concentrations ranging from 1 μM to 320 pM. […] After 1 hr pretreatment, 10 μl of a 50 ng/ml TNF-α solution, prepared in the phenol-red free DMEM medium was added, and the plates were incubated for an additional 6 hr.
The relative luciferase units (RLU) were measured by using a Fusion microplate fluorometer (Packard Bioscience).
(In general: In a reporter assay the amount or activity of a reporter protein is the signal.)

For a further series, the system named is MES-SA cells. Description: Cell growth inhibition (resazurin, 48 hours), MES-SA.
[4] abbreviates: Homo sapiens, HL60/MX2, read-out: EC50 (nM) HL-60/MX2, Table 17.
[5] abbreviates: read-out: EC50 (nM) HL-60/MX2, Table 17.
Setting [6] is: Homo sapiens, HL-60, read-out: EC50 (nM) HL-60, Table 17.
Setting [7] is: read-out: EC50 (nM) HL-60, Table 17.
Where [8] appears, read: Homo sapiens, OVCAR-3, Table 13, OVCAR-3.
The mark [9] stands for this setting: Mus musculus, B16-F10, Table 13, B16-F10.
[10] abbreviates: Homo sapiens, MES-SA/Dx5, read-out: EC50 (nM) MES-SA/Dx5, Table 16.
The mark [11] stands for this setting: read-out: EC50 (nM) MES-SA/Dx5, Table 16.
[12] abbreviates: Homo sapiens, MES-SA, read-out: EC50 (nM) MES-SA, Table 16.
The mark [13] stands for this setting: read-out: EC50 (nM) MES-SA, Table 16.
Where [14] appears, read: Table 3, mean EC50, purified rabbit 20S proteasomes, read-out: EC50 Values, Chymotrypsin-like.

“And” between values parts separate entries of the source, which are not always exact repeats. Equal entries are not always repeated. Where two headings read alike, the source gives them in different places. A value given as a limit tells only on which side of the number the result lay.

For `C[C@@]12OC(=O)[C@]1([C@@H](O)C1CCCCC1)NC(=O)[C@@H]2CCCl` [Formula II-2], the EC50 in the series with HL-60/MX2 cells (setting [4]) is 142 nM; in the series with HL-60/MX2 cells (setting [5]), 133 nM; in the series on HL-60 cells (setting [6]), 237 nM; with HL-60 cells (setting [7]), 176 nM; in the series with PC-3 cells (Homo sapiens, Table 13, PC-3, read-out: EC50) it was 284 ± 110 nM; in [1], 230 nM. Besides, the EC50 in series [2] (EC50, chymotrypsin-like activity of the proteasome) worked out at 18.5 nM; in [2] (EC50 Values, Chymotrypsin-like) it was 18 nM; with MDA-MB-231 cells (MDA-MB-231), 121 ± 23 nM; in the series with OVCAR-3 cells (setting [8]), 188 nM; in the series with OVCAR-3 cells (Table 13, OVCAR-3), 251 nM; in the series with B16-F10 cells (setting [9]), 194 nM. In addition, the EC50 in the series on MES-SA/Dx5 cells (setting [10]) is 220 nM; in the series on MES-SA/Dx5 cells (setting [11]) it was 138 nM; in series [3] (HEK293, representative experiment, Example 43 (FIG. 44, 45), read-out: calculated EC50 to inhibit NF-κB inducible luciferase activity), 73 nM; with MES-SA cells (setting [12]) it was 193 nM; in the series on MES-SA cells (setting [13]), 155 nM. The results for the Fold change with HL-60/MX2 cells (Table 17) and with MES-SA/Dx5 cells (Table 16) were 0.7 fold and 1.0 fold, respectively. Further, the “luciferase activity upon TNF-α stimulation” value in series [3] was “dose-dependent decrease”.
As to `C[C@@]12OC(=O)[C@]1([C@@H](O)C1CCCCC1)NC(=O)[C@@H]2CCBr` [Formula II-4], the EC50 with HL-60/MX2 cells (setting [4]) was found to be 103 nM; in the series on HL-60/MX2 cells (setting [5]), 97 nM; with HL-60 cells (setting [6]), 111 nM; with PC-3 cells (Homo sapiens, PC-3), 204 ± 49 nM; in series [1], 109 nM; in series [2] (setting [14]), 14.2 nM. Moreover, the EC50 is 15 nM in series [2] (representative experiment, Example 44 (FIG. 46, 47), read-out: EC50, chymotrypsin-like activity of the proteasome); 114 ± 4 nM in the series on MDA-MB-231 cells (MDA-MB-231); above 6320 nM in the series on OVCAR-3 cells (setting [8]); 163 nM in the series with B16-F10 cells (setting [9]); 175 nM in the series on B16-F10 cells (Table 13, B16-F10); 178 nM with MES-SA/Dx5 cells (setting [10]). Besides, the EC50 in the series on MES-SA/Dx5 cells (setting [11]) was 93 nM; in series [3] (HEK293, read-out: calculated EC50 to inhibit NF-κB inducible luciferase activity), 67 nM; in the series with MES-SA cells (setting [12]), 163 nM. The Fold change was determined as 0.8 fold in the series on HL-60/MX2 cells (Table 17) and 0.9 fold in the series on MES-SA/Dx5 cells (Table 16). Moreover, the “luciferase activity upon TNF-α stimulation” value in [3] is on record as “dose-dependent decrease”.
Turning to `C[C@@]12OC(=O)[C@]1([C@@H](O)[C@@H]1C=CCCC1)NC(=O)[C@@H]2CCCl` [Formula II-16, Salinosporamide A], the EC50 amounted to 28 nM with HL-60/MX2 cells (Homo sapiens, HL60/MX2, Table 8, HL-60/MX2); 25 nM in the series on HL-60/MX2 cells (Table 8, HL-60/MX2); 27 nM in the series with HL-60 cells (Homo sapiens, HL-60, Table 8, HL-60); 30 nM in the series on HL-60 cells (Table 8, HL-60); 78 nM in the series on PC-3 cells (Homo sapiens, PC-3, 48 h, PC3, 48h, panel of b226); 64 ± 26 nM with PC-3 cells (Homo sapiens, PC-3, 48 h, read-out: EC50 (nM), mean ± SD, Table 2, PC-3, human prostate adenocarcinoma, 48 hours). For the same compound, the EC50 is 31 nM with PC-3 cells (Homo sapiens, PC-3, Table 6, PC-3 (n = 2)); 25 nM in the series on PC-3 cells (Table 6, PC-3 (n = 2)); 67 nM in the series on MDA-MB-231 cells (MDA-MB-231, 48 h); 87 ± 40 nM in the series on MDA-MB-231 cells (MDA-MB-231, 48 h, read-out: EC50 (nM), mean ± SD); 69 nM in the series on OVCAR-3 cells (Homo sapiens, OVCAR-3, 48 h); 49 ± 31 nM with OVCAR-3 cells (Homo sapiens, OVCAR-3, 48 h, read-out: EC50 (nM), mean ± SD). Moreover, the EC50 with B16-F10 cells (Mus musculus, B16-F10, 48 h) is 33 nM; in the series with B16-F10 cells (Mus musculus, B16-F10, 48 h, read-out: EC50 (nM), mean ± SD), 47 ± 20 nM; in the series on MES-SA/Dx5 cells (Homo sapiens, MES-SA/Dx5, read-out: EC50 (nM), mean ± SD), 23 ± 1 nM; in [3] (HEK293, 6 h, read-out: calculated EC50 for inhibition of NF-κB/luciferase activity), around 7 nM; in the series on MES-SA cells (Homo sapiens, MES-SA, read-out: EC50 (nM), mean), 20 ± 5 nM. The “% cytotoxicity” value with HL-60/MX2 cells (Table 8, HL-60/MX2) is 84% and 89%; with HL-60 cells (Table 8, HL-60), 88% and 91%; in the series on PC-3 cells (Table 6, PC-3 (n = 2)) it was 88% and 89%. Moreover, the “more potent than Omuralide” value in series [2] (20S proteasome assay EC50 values) was “approximately 40 fold”. Moreover, the “% cytotoxicity, mean ± SD” value was found to be 92 ± 2% with MES-SA/Dx5 cells (Table 7, MES-SA/Dx5) and 94 ± 1% with MES-SA cells (Table 7, MES-SA). Besides, in series [3], the “luciferase activity upon TNF-α stimulation” value is recorded as “dose-dependent decrease”.
On to `C[C@@]12OC(=O)[C@]1([C@@H](O)[C@@H]1C=CCCC1)NC(=O)[C@@H]2CCBr` [Formula II-18], for which the EC50 with HL-60/MX2 cells (setting [4]) was 19 nM; in the series on HL-60/MX2 cells (setting [5]), 18 nM; in the series on HL-60 cells (setting [6]) it was 27 nM; in the series on HL-60 cells (setting [7]), 23 nM; in the series with PC-3 cells (Homo sapiens, PC-3), 35 ± 5.6 nM; in series [1], 14 nM. Also, the EC50 was 2.2 nM in series [2] (setting [14]); 16 ± 2.8 nM in the series with MDA-MB-231 cells (MDA-MB-231); above 2000 nM in the series on OVCAR-3 cells (setting [8]); 19 nM with B16-F10 cells (setting [9]); 36 nM in the series on B16-F10 cells (Table 13, B16-F10); 22 nM with MES-SA cells (setting [12]). For the same compound, the EC50 in the series with MES-SA cells (setting [13]) turned out to be 17 nM. For the same compound, the Fold change with HL-60/MX2 cells (Table 17) amounted to 0.7 fold; with MES-SA/Dx5 cells (Table 16) it was 1.2 fold. Moreover, the “luciferase activity upon TNF-α stimulation” value in [3] was “dose-dependent decrease”.
